For the test, the system named is human embryonic stem cell derived neural stem cells (NSCs). The test is described as follows: Neural stem cell proliferation assay (neurogenesis assay). The test is classed as cell-based. As to conditions: Homo sapiens, Neural stem cell, 96 h, concentration at which 150% activity of control (100%) is reached, ATP levels (CellTiterGlo) after 4 days incubation. Here is the method: Neural Stem Cell Proliferation Assay
Neurogenic properties of small molecules are determined based on the proliferation of human embryonic stem cell derived neural stem cells (NSCs) which were derived via a dual smad inhibition as previously described (Chambers, S. M., et al., Highly efficient neural conversion of human ES and iPS cells by dual inhibition of SMAD signaling, Nature biotechnology, 2009. 27 (3): p. 275-80.)
Compounds respond is measured by the increase in cells based on ATP levels (Promega:CellTiterGlo®) after an incubation period of 4 days.
NSCs are thawed and expanded over 3 passages. On the 14th day, NSCs are seeded in Polyornithin/Laminin coated 384 well plates at a cell density of 21,000 cells/cm^2 in a media volume of 38 μl.
4 hours after cell seeding, compound solutions are added at a volume of 2 μl. Stock solutions of the compounds (water, 5% DMSO) are diluted to obtain a dose response (11 points, dilution factor is 2), ranging from 8 μM to 8 nM. Controls are run to consistently determine the neurogenic properties of the cells:
Negative (neutral) control is cell culture Media (final DMSO concentration: 0.25%).
Positive controls are: • 1. cell culture Media+100 ng/ml FGF2 (final DMSO concentration: 0.1%) • 2. cell culture Media+20 ng/ml EGF (final DMSO concentration: 0.1%) • 3. cell culture Media+100 ng/ml Wnt3a (final DMSO concentration: 0.1%)
After 4 days incubation at 37° C., 5% CO2, the amount of ATP per well is quantified. The ATP concentration is proportional to the cell number. ATP is quantified by using the Promega CellTiterGlo® kit. The CellTiterGlo® reagents contain a cell lysis buffer, a thermo stable luciferase (UltraGlo™ recombinant luciferase), magnesium and luciferin. Luciferin reacts with ATP producing oxyluciferin, AMP and light. The luminescence signal is proportional to the ATP content.
The value of negative (neutral) control is determined for each assay plate by taking the average of 16 negative control wells. The neurogenic compound response is calculated for each compound as (compound/Negative Control)*100.
The values of EC150 from the dose response curve are determined for each test compound. The EC150 is the compound concentration at which 150% activity of control (100%) is reached.

Consider `NC(=O)c1ccc2cncc(-c3cccc(Cl)c3)c2n1` [Example 167, 8-(3-Chlorophenyl)-1,6-naphthyridine-2-carboxamide], for which the EC (150% of control) (Table 1, novel compounds) came out at 0.09 µM.

Take `CC(NC(=O)c1ccc2cncc(-c3ccc(F)cc3)c2n1)c1ccc(S(C)(=O)=O)cc1` (centres unmarked) [Example 107, 8-(4-Fluorophenyl)-N-(1-(4-(methylsulfonyl)phenyl)ethyl)-1,6-naphthyridine-2-carboxamide]: the EC (150% of control) (Table 1, novel compounds) stood at 0.1 µM.

Regarding `CC(C)(C)NC(=O)c1ccc2cncc(-c3ccc(Cl)cc3)c2n1` [Example 69, N-tert-Butyl-8-(4-chlorophenyl)-1,6-naphthyridine-2-carboxamide], for the setting “Table 1, novel compounds”, the EC (150% of control) was found to be 0.32 µM.

`O=C(c1ccc2cncc(-c3ccc(Cl)cc3)c2n1)N1CCOCC1` [Example 57, (8-(4-Chlorophenyl)-1,6-naphthyridin-2-yl)(morpholino)methanone] displayed an EC (150% of control) (Table 1, novel compounds) of 0.17 µM.

Regarding `O=C(NCc1ccccc1)c1ccc2cncc(Br)c2n1` [Example 10, N-Benzyl-8-bromo-1,6-naphthyridine-2-carboxamide], the EC (150% of control) (Table 1, novel compounds) worked out at 0.76 µM.

`CN(C)S(=O)(=O)c1ccc(-c2cncc3ccc(C(N)=O)nc23)cc1` [Example 106, 8-(4-(N,N-Dimethylsulfamoyl)phenyl)-1,6-naphthyridine-2-carboxamide] had an EC (150% of control) (Table 1, novel compounds) of 0.19 µM.

Turning to `COc1ccc(-c2cncc3ccc(C(=O)NCc4ccncc4)nc23)cc1` [Example 181, 8-(4-Methoxy-phenyl)-[1,6]naphthyridine-2-carboxylic acid (pyridin-4-ylmethyl)-amide], the EC (150% of control) (Table 2, known compounds) was found to be 0.04 µM.

Take `Cc1cccc(-c2cncc3ccc(C(N)=O)nc23)c1` [Example 81, 8-m-Tolyl-1,6-naphthyridine-2-carboxamide]: for the setting “Table 1, novel compounds”, the EC (150% of control) is 0.05 µM.

Consider `O=C(NCc1ccccn1)c1ccc2cncc(-c3ccc(Cl)cc3)c2n1` [Example 46, 8-(4-Chlorophenyl)-N-(pyridin-2-ylmethyl)-1,6-naphthyridine-2-carboxamide], for which the EC (150% of control) (Table 1, novel compounds) was 0.51 µM.

In turn, `NC(=O)c1ccc2cncc(-c3ccc4c(c3)OCCO4)c2n1` [Example 92, 8-(2,3-Dihydrobenzo[b][1,4]dioxin-6-yl)-1,6-naphthyridine-2-carboxamide] showed an EC (150% of control) (Table 1, novel compounds) of 0.03 µM.

For the molecule `COc1cccc(-c2cncc3ccc(C(=O)NCCCn4ccnc4)nc23)c1` [Example 38, N-(3-(1H-Imidazol-1-yl)propyl)-8-(3-methoxyphenyl)-1,6-naphthyridine-2-carboxamide], the EC (150% of control) (Table 1, novel compounds) worked out at 1.95 µM.

Under “Table 1, novel compounds”, `NC(=O)c1ccc2cncc(-c3ccc(N4CCOCC4)cc3)c2n1` [Example 94, 8-(4-Morpholinophenyl)-1,6-naphthyridine-2-carboxamide] displayed an EC (150% of control) of 0.01 µM.

In turn, `CS(=O)(=O)c1ccccc1-c1cncc2ccc(C(N)=O)nc12` [Example 88, 8-(2-(Methylsulfonyl)phenyl)-1,6-naphthyridine-2-carboxamide] displayed an EC (150% of control) (Table 1, novel compounds) of 0.5 µM.

The molecule `Cn1cc(NC(=O)c2ccc3cncc(-c4ccc(Cl)cc4)c3n2)cn1` [Example 55, 8-(4-Chlorophenyl)-N-(1-methyl-1H-pyrazol-4-yl)-1,6-naphthyridine-2-carboxamide] returned an EC (150% of control) (Table 1, novel compounds) of 0.25 µM.

`COc1ccc(-c2cncc3ccc(C(=O)NCCc4ccccc4)nc23)cc1` [Example 20, 8-(4-Methoxyphenyl)-N-phenethyl-1,6-naphthyridine-2-carboxamide] came in with an EC (150% of control) (Table 1, novel compounds) of 0.8 µM.

As to `NC(=O)c1ccc2cncc(-c3ccc(Cl)cc3Cl)c2n1` [Example 160, 8-(2,4-Dichlorophenyl)-1,6-naphthyridine-2-carboxamide], the EC (150% of control) (Table 1, novel compounds) amounted to 0.1 µM.

`CS(=O)(=O)c1cccc(CNC(=O)c2ccc3cncc(-c4ccc(Cl)cc4)c3n2)c1` [Example 51, 8-(4-Chlorophenyl)-N-(3-(methylsulfonyl)benzyl)-1,6-naphthyridine-2-carboxamide]: where the note is “Table 1, novel compounds”, the EC (150% of control) was 0.12 µM.
